For one molecule, solubility results are on record in US20050038007A1, “Dosage forms of cholesteryl ester transfer protein inhibitors and HMG-CoA reductase inhibitors” (Pfizer Inc, priority 2003, published 2005).

A short description of this series: Aqueous solubility of torcetrapib. It is filed as physicochemical. Particulars: water (aqueous), at about 22° C. On the procedure:
The CETP inhibitor may be any compound capable of inhibiting the cholesteryl ester transfer protein. […] Many CETP inhibitors have even lower solubilities (some even less than 0.1 μg/mL), and require dramatic concentration enhancement to be sufficiently bioavailable upon oral dosing for effective plasma concentrations to be reached at practical doses.
CETP inhibitors, in particular torcetrapib, and methods for preparing such compounds are disclosed in detail in U.S. Pat. Nos. 6,197,786 and 6,313,142, in PCT Application Nos. WO 01/40190A1, WO 02/088085A2, and WO 02/088069A2, the disclosures of which are herein incorporated by reference. Torcetrapib has an unusually low solubility in aqueous environments such as the lumenal fluid of the human GI tract. The aqueous solubility of torcetrapib is less than about 0.04 μg/ml. Torcetrapib must be presented to the GI tract in a solubility-improved form in order to achieve a sufficient drug concentration in the GI tract in order to achieve sufficient absorption into the blood to elicit the desired therapeutic effect.

Structures are written as SMILES.

For the molecule `CCOC(=O)N1c2ccc(C(F)(F)F)cc2[C@@H](N(Cc2cc(C(F)(F)F)cc(C(F)(F)F)c2)C(=O)OC)C[C@H]1CC` [Torcetrapib, [2R,4S]-4-[(3,5-bis-trifluoromethyl-benzyl)-methoxycarbonyl-amino]-2-ethyl-6-trifluoromethyl-3,4-dihydro-2H-quinoline-1-carboxylic acid ethyl ester], the solubility was less than 0.04 µg/mL.

Broadly, the solubility is the dissolved amount per volume that the medium holds. Read a low solubility as little dissolved substance.
